Measured values taken from US6613317B1, “Volatile attractants for diabrotica species” (priority 1988, dated 2003).
Where “and” joins values, the source holds several entries; their conditions need not be identical. Identical values can stand only once. Marks after values point to notes of the source that are not given here.

Columns and labels:
[1] = test system: SCR; test: Limit of response rating of squash blossom volatiles on sticky traps (Example 5); type: in vivo, Diabrotica undecimpunctata howardi; conditions: 24 hour; four replicate traps; 0.01 mg to 200 mg
Experimental: (§1) Over 40 individual volatile chemicals have been isolated from Cucurbita maxima blossoms and circa 25 of these have been unequivocally identified (Andersen, J. F., J. Agric. Food Chem., 35:60-62 (1987): Andersen, J. F. and Metcalf, R. L., J. Chem. Ecol., 12:687-699 (1986)). The major odor components were evaluated as potential attractants for adult Diabrotica species using cylindrical sticky traps baited with dental cotton wicks (Metcalf, R. L., and Lampman, R. L., Paper submitted to J. Econ. Entomol., (1988)) containing from 0.01 mg to 200 mg of volatile compound.

[2] = test system: WCR; test: as above; type: in vivo, Diabrotica virgifera virgifera; conditions: 24 hour; four replicate traps; 0.01 mg to 200 mg
Experimental: as §1

[3] = test system: NCR; test: as above; type: in vivo, Diabrotica barberi; conditions: 24 hour; four replicate traps; 0.01 mg to 200 mg
Experimental: as §1

[4] = test system: D. v. virgifera; test: Sticky trap attraction in prairie habitat, Trelease Woods (Example 2); type: in vivo, Diabrotica virgifera virgifera; conditions: 100 mg per trap, n = 4
Experimental: (§2) The candidate lures in all experiments were purchased commercially and exceeded 98% purity. The test chemicals were applied by capillary micropipettes to cotton dental wicks which were attached to the tops of 1.0 liter cylindrical paper cartons covered with TangleTrap™ (Tanglefoot Co., Grand Rapids, Mich.). The sticky trap techniques used were as described in Example 1. Cinnamyl alcohol and para-methoxycinnamaldehyde, which are solids, were dissolved in glass-distilled acetone prior to dosing the cotton wicks. […]. Control traps had untreated cotton wicks. Four replicates of treated and untreated traps were randomly positioned 10 meters apart on top of 1 m high posts along the border of a eight foot wide strip cut through the middle of a 4.05 ha relict prairie at Trelease Woods (ca. two miles northeast of Urbana, Ill.). The field consisted primarily of Andropogon gerardii Vitman (big bluestem) and a variety of composites. The tests were conducted in mid-August of two years and were timed to coincide with the presence of D. cristata and D. barberi adults in the flower heads of Canada thistle (Carduus arvensis Robson). In the second year, several new attractants of D. v. virgifera and D. barberi were tested in Trelease Woods and along the edge of a 0.8 ha field of hybrid corn located at the Pomology South Farms, Urbana, Ill. Attraction of Diabrotica species to the various lures was measured by the mean number of beetles caught after 24-h. On one date in late August of the first year, D. cristata and D. barberi were removed from the traps and sexed in the laboratory. The significance of treatments in all tests was determined by an analysis of variance and the individual means were separated by Duncan's multiple range test (Statistical Package for Social Science, Nie, et al., SPSS: statistical package for the social sciences, 2nd ed. McGraw-Hill, New York (1975). Data were logarithmically transformed for statistical analysis and the means and standard deviations are presented for the untransformed data.

[5] = test system: western corn rootworm (WCR) adults; test: Sticky trap attraction in sweet corn plots (Example 1); type: in vivo, Diabrotica virgifera virgifera; conditions: August 4, second year, each compound 20 mg per trap
Experimental: (§3) The attraction of Diabrotica species to single-component and multicomponent lures was evaluated in corn fields. The field experiments on attraction of SCR and WCR adults were conducted in 0.405-ha (1-acre) plots of “Illini Xtra Sweet” corn grown on the University of Illinois South Farms at Urbana, Ill., over a two year period. Most of the tests were conducted in August to correspond with the peak silk-feeding and oviposition periods of corn rootworm adults in central Illinois. In both years, the sweet corn plot was adjacent to a 0.405-ha trap crop of C. maxima cultivar “Blue Hubbard”, to provide high densitites of SCR and WCR adults in the corn plots (Howe, et al., Environ. Entomol., 5:745-751 (1976), Lampman, et al., J. Chem. Ecol., 13:959-975 (1987).
(§4) Attraction of Diabrotica species to volatile compounds was measured by the average number of beetles cought during a 24-h period on 1.0-liter cylindrical paper cartons (15.2 cm high, 27.9 cm circumference) which were evenly coated with clear insect adhesive, TangleTrap™ (Tanglefood Co., Grand Rapids, Mich.) The candidate attractants were applied by capillary micropiettes to cotton dental wicks (13 mm long by 6 mm diameter) that were previously impregnated with mineral oil to prolong volatilization. The chemicals were purchased from Aldrich Chemical Co., (Milwaukee, Wis.) and assayed by gas chromatography as >97% pure. Indole, a solid at ambient temperatures (m.p. 52-54° C.), was dissolved in glass-distilled acetone before dosing the cotton wicks. For dosage-acticity tests, the various components were mixed in equal quantities by weight and diluted to the appropriate dosage with acetone. Treated and untreated (control) wicks were attached to the top of the paper cartons with TangleTrap™ and the inverted traps were placed on 1-m-high posts between the sweet corn rows. Four replicates of each treatment and a control were conducted in a randomized complete block desgin. The sticky traps within a block (ca. 50-m row of corn) were 5-10 m apart (depending on the number of treatments in a particular test) and the blocks were 3 m apart. The traps were baited and placed in the field between 1000 and 1300 hours and beetle counts were taken after 24 h. The significance of treatments was determined by analysis of variance and the individual means were separated by Duncan's multiple range test (Statistical Package for Social Sciences (SPSS) (Nie, et al., SPSS: statistical package for the social sciences, 2nd ed. McGraw-Hill, N.Y. (1975)). Student's t test was used for comparisons of two means (Sokal, et al., Biometry, Freeman, San Francisco (1969). Significance levels were set at P=0.05 at all statistical analyses.
(§5) The initial field test in August of the first year evaluated the response of SCR and WCR adults of a mixture of veratrole (V), indole (I), phenylacetaldehyde (P), trans-anethole (A), and eugenol (E) (=VIPAE mixture), as well as to the individual components. Each component in the VIPAE mixture was present at a dosage of 20 mg per trap and was compared with the individual components at 100 mg per trap. The response of SCR and WCR adults to a range of VIPAE doses, 1-300 mg, was conducted on the following day. Fifty SCR adults were removed from each 100-mg VIPAE trap, and returned to the laboratory for sex determination. Additional analyses in August evaluated the reduction in trap catches produced by the sequential removal of the individual components from the VIPAE lure. After the primary components of the initial lure were determined, a modified multicomponent lure consisting of veratrole, indole, and phenylacetaldehyde (=VIP mixture) was compared with its individual components to determine whether the attraction of SCR adults was the result of interactive or additive factors. The attraction and synergistic response of SCR adults of the VIP mixture was verified by tests conducted in August of the following year. […]

[6] = test system: D. u. howardi; test: Sticky trap attraction in prairie habitat, Trelease Woods (Example 2); type: in vivo, Diabrotica undecimpunctata howardi; conditions: 100 mg per trap, n = 4
Experimental: as §2

[7] = test system: southern corn rootworm (SCR) adults; test: Sticky trap attraction in sweet corn plots (Example 1); type: in vivo, Diabrotica undecimpunctata howardi; conditions: August 4, second year, each compound 20 mg per trap
Experimental: as §3, §4, §5

[8] = test system: D. cristata; test: Sticky trap attraction in prairie habitat, Trelease Woods (Example 2); type: in vivo, Diabrotica cristata; conditions: 100 mg per trap, n = 4
Experimental: as §2

[9] = test system: D. barberi; test: as above; type: in vivo, Diabrotica barberi; conditions: 100 mg per trap, n = 4
Experimental: as §2

SMILES	Attractant Rating SCR (by limit of response) [1]	Attractant Rating WCR (by limit of response) [2]	Attractant Rating NCR (by limit of response) [3]	Mean number of D. v. virgifera per sticky trap per day (±standard deviation) ([4]; August 20, first year)	Mean number of D. u. howardi per sticky trap per day (±standard deviation) ([6]; August 20, first year)	other results
COc1ccc(OC)c(OC)c1 [1,2,4-trimethoxybenzene]	+1 (30-100)	+1 (30-100)	0 (200)	–	–	–
COc1ccc(OC)cc1 [1,4-dimethoxybenzene]	0 (200)	0 (200)	0 (200)	–	–	–
CCCCCC=O [1-hexanal]	0 (200)	0 (200)	0 (200)	–	–	–
CCCCCCO [1-hexanol]	0 (200)	0 (200)	0 (200)	–	–	–
COc1ccccc1O [Guaiacol, 2-methoxyphenol]	–	–	–	0 per sticky trap per day	0.8 ± 1.0^a per sticky trap per day	relative percent activity (WCR) as compared with the highest mean value for the test date [5]: 39%; Mean number of WCR per trap (±standard deviation) ([5]; n = 4): 20.0 ± 8.9 per trap; relative percent activity (SCR) as compared with the highest mean value for the test date [7]: 2%; Mean number of SCR per trap (±standard deviation) ([7]; n = 4): 0.8 ± 0.6 per trap; Mean number of D. cristata per sticky trap per day (±standard deviation) ([8]; August 20, first year): 6.0 ± 2.6^b per sticky trap per day; Mean number of D. barberi per sticky trap per day (±standard deviation) ([9]; August 20, first year): 4.3 ± 2.1^b per sticky trap per day
CC=Cc1ccc(O)c(OC)c1 [Isoeugenol]	–	–	–	0 per sticky trap per day	0.5 ± 1.0^a per sticky trap per day and 1.0 ± 0.8^a per sticky trap per day	Mean number of D. v. virgifera per sticky trap per day (±standard deviation) ([4]; August 18, first year): 0.0^a per sticky trap per day; Mean number of D. v. virgifera per sticky trap per day (±standard deviation) ([4]; August 27, first year): 0 per sticky trap per day; Mean number of D. u. howardi per sticky trap per day (±standard deviation) ([6]; August 18, first year): 0.0^a per sticky trap per day; Mean number of D. u. howardi per sticky trap per day (±standard deviation) ([6]; August 27, first year): 0.5 ± 1.0^a per sticky trap per day; Mean number of D. cristata per sticky trap per day (±standard deviation) ([8]; August 18, first year): 10.5 ± 12.6^b per sticky trap per day; Mean number of D. cristata per sticky trap per day (±standard deviation) ([8]; August 27, first year): 2.5 ± 1.7^b per sticky trap per day; Mean number of D. barberi per sticky trap per day (±standard deviation) ([9]; August 18, first year): 31.8 ± 26.7^b per sticky trap per day; Mean number of D. barberi per sticky trap per day (±standard deviation) ([9]; August 27, first year): 8.5 ± 3.4^b per sticky trap per day
C=CCc1ccc(OC)c(OC)c1 [Methyl eugenol]	–	–	–	0 per sticky trap per day	0.3 ± 0.5^a per sticky trap per day	Mean number of D. v. virgifera per day (±standard deviation) ([4]; August 14, 1987): 0.0^a per day; Mean number of D. v. virgifera per sticky trap per day (±standard deviation) ([4]; August 18, first year): 0.0^a per sticky trap per day; Mean number of D. u. howardi per day (±standard deviation) ([6]; August 14, 1987): 0.3 ± 0.5^a per day; Mean number of D. u. howardi per sticky trap per day (±standard deviation) ([6]; August 18, first year): 0.0^a per sticky trap per day; Mean number of D. cristata per day (±standard deviation) ([8]; August 14, 1987): 4.5 ± 1.3^ab per day; Mean number of D. cristata per sticky trap per day (±standard deviation) ([8]; August 18, first year): 1.8 ± 1.5^a per sticky trap per day; Mean number of D. cristata per sticky trap per day (±standard deviation) ([8]; August 20, first year): 1.5 ± 1.7^a per sticky trap per day; Mean number of D. barberi per day (±standard deviation) ([9]; August 14, 1987): 1.0 ± 1.4^a per day; Mean number of D. barberi per sticky trap per day (±standard deviation) ([9]; August 18, first year): 1.8 ± 1.7^a per sticky trap per day; Mean number of D. barberi per sticky trap per day (±standard deviation) ([9]; August 20, first year): 2.0 ± 1.4^ab per sticky trap per day
C=CCc1ccc2c(c1)OCO2 [Safrole]	–	–	–	0 per sticky trap per day	0.0^a per sticky trap per day	Mean number of D. cristata per sticky trap per day (±standard deviation) ([8]; August 20, first year): 1.3 ± 1.9^a per sticky trap per day; Mean number of D. barberi per sticky trap per day (±standard deviation) ([9]; August 20, first year): 0.25 ± 0.25^a per sticky trap per day
O=Cc1ccccc1 [benzaldehyde]	0 (200)	0 (200)	0 (200)	–	–	–
OCc1ccccc1 [benzyl alcohol]	0 (200)	0 (200)	0 (200)	–	–	–
CC/C=C\CCO [cis-3-hexenol]	0 (200)	+1 (30-100)	0 (200)	–	–	–
C=CC(C)(O)CCC=C(C)CCC=C(C)C (stereo not shown) [nerolidol]	0 (200)	0 (200)	0 (200)	–	–	–
COc1ccc(C=O)cc1 [p-methoxybenzaldehyde]	0 (200)	0 (200)	0 (200)	–	–	–
